Assay [1] addresses biotinylated amyloid-beta(1-42) (bioAbeta42) (Homo sapiens, UniProt P05067). Type of assay: biochemical.
In another assay the test system is SIM-A9 cells. The assay can be described thus: Anti-inflammation assay: TNF-α production from LPS stimulated SIM-A9 cells (ELISA). The conditions noted are these: compound 2.7 μM; LPS stimulated SIM-A9 cells; read-out: TNF-α Inhibition. Type of assay: cell-based.
For a further assay, the target named is Aβ 1-40 (Homo sapiens, UniProt P05067). The assay can be described thus: Aβ ThT aggregation (fibrillization) assay. Type of assay: biochemical. Conditions: compound at 100 μM.
Where [2] appears, read: Example 5, ND = inhibition activity not detected over 200 μM, read-out: Inhibition of Aβ oligomerization, μM IC50.
Setting [3] is: Example 5, versus DMSO control, read-out: Inhibition of Aβ fibrillization at concentration 100 μM, Inhibition %.
Where [4] appears, read: Example 2, read-out: Anti-Aβ oligomerization IC50.

Several values for one entry are separate records, joined by “and”; a condition that tells them apart may be missing. Identical values can stand only once. Like-named read-outs stand apart in the source and are kept apart here.

biotinylated amyloid-beta(1-42) (bioAbeta42), sequence (P05067 672-713): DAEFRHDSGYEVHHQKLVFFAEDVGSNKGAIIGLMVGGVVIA
Aβ 1-40, sequence (P05067 672-711): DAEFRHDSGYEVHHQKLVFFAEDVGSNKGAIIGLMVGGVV

With `O=C(O)c1cc(S(=O)(=O)NC2CCCCC2)c(Cl)cc1NCc1ccco1` [WW082, 4-Chloro-5-(N-cyclohexylsulfamoyl)-2-((furan-2-ylmethyl)amino) Benzoic Acid], in assay [1] (setting [2]), the IC50 (as a rule, the concentration that gives 50% inhibition) amounted to 116 ± 13.8 µM. For the same molecule, the inhibition at 2.7 µM in the assay on SIM-A9 cells was 11%. For the molecule `CCNC(=O)c1cc(C(=O)OC)c(NCc2ccco2)cc1Cl` [SIV-W172, Methyl 4-chloro-5-(ethylcarbamoyl)-2-((furan-2-ylmethyl)amino)benzoate], the inhibition at 2.7 µM in the assay on SIM-A9 cells was 18%.

For `O=C(O)c1ccc(Cl)cc1NCc1ccccc1` [LD3-305, 2-(Benzylamino)-4-chlorobenzoic Acid], in the assay with SIM-A9 cells, the inhibition at 2.7 µM worked out at 30%. Regarding `Cc1ccc(CNS(=O)(=O)c2cc(C(=O)O)c(NCc3ccco3)cc2Cl)cc1` [WW065, 4-Chloro-2-((furan-2-ylmethyl)amino)-5-(N-(4-methylbenzyl)sulfamoyl) Benzoic Acid], the concentration for half-maximal inhibition (IC50) in assay [1] (setting [2]) was above 200 µM. The inhibition at 2.7 µM in the assay on SIM-A9 cells stood at 20%. With `CNS(=O)(=O)c1cc(C(=O)N(C)C)c(NCc2ccco2)cc1Cl` [WW103, 4-Chloro-2-((furan-2-ylmethyl)amino)-N, N-dimethyl-5-(N-methylsulfamoyl) Benzamide], the 50% inhibitory concentration (IC50) in assay [1] (Example 5, ND = inhibition activity not detected over 200 μM, listed as SII-W103, read-out: Inhibition of Aβ oligomerization, μM IC50) was 6.5 µM and 6.56 µM. For the same molecule, the inhibition at 100 µM on Aβ 1-40 (Example 3, read-out: % inhibition of Aβ fibrillization (at 100 μ M)) was 25.2%; on Aβ 1-40 (setting [3]) it was 25.2%. In the case of `CN(C)S(=O)(=O)c1cc(C(=O)O)c(NCc2ccco2)cc1Cl` [WW062, 4-Chloro-5-(N, N-dimethylsulfamoyl)-2-((furan-2-ylmethyl)amino) Benzoic Acid], the half-inhibitory concentration (IC50) in assay [1] (setting [2]) came out at 113 ± 22.8 µM. Further, the “Inhibition of Aβ fibrillization at concentration 100 μM, Inhibition %” value (“Inhibition of Aβ fibrillization … Inhibition %” below) at Aβ 1-40 (Example 5, versus DMSO control) is recorded as “Pro- fibrilliza- tion”. `CNC(=O)c1cc(C(=O)O)c(NCc2ccco2)cc1Cl` [SIV-W168, 4-Chloro-2-((furan-2-ylmethyl)amino)-5-(methylcarbamoyl)benzoic Acid]: the IC50 in assay [1] (setting [2]) is above 200 µM. The inhibition at 2.7 µM in the assay with SIM-A9 cells turned out to be 27%. On to `O=C(O)c1cc(S(=O)(=O)NCc2ccccc2)c(Cl)cc1NCc1ccco1` [WW035, 5-(N-benzylsulfamoyl)-4-chloro-2-((furan-2-ylmethyl)amino)benzoic Acid], for which the IC50 in assay [1] (setting [2]) is above 200 µM. `COc1ccc(C(=O)O)c(NCc2ccco2)c1` [Compound 5-LV-54A]: the inhibition at 2.7 µM in the assay on SIM-A9 cells was found to be 16%.

With `O=C(O)c1ccc(Cl)cc1NCc1cccs1` [LD3-309, 4-Chloro-2-((thiophen-2-ylmethyl)amino)benzoic Acid], in the assay on SIM-A9 cells, the inhibition at 2.7 µM amounted to 18%. On to `CN(C)C(=O)c1cc(C(=O)O)c(NCc2ccco2)cc1Cl` [SIV-W173, 4-Chloro-5-(dimethylcarbamoyl)-2((furan-2-ylmethyl)amino)benzoic Acid], for which the IC50 in assay [1] (setting [2]) was above 200 µM. Also, in the assay with SIM-A9 cells, the inhibition at 2.7 µM is 25%. As for `COc1ccc(CNS(=O)(=O)c2cc(C(=O)O)c(NCc3ccco3)cc2Cl)cc1` [WW063, 4-Chloro-2-((furan-2-ylmethyl)amino)-5-(N-(4-methoxybenzyl)sulfamoyl) Benzoic Acid], in assay [1] (setting [2]), the half-maximal inhibitory concentration (IC50) was above 200 µM. On to `O=C(O)c1ccc(Br)cc1NCc1ccco1` [WW073, 4-Bromo-2-((furan-2-ylmethyl)amino) Benzoic Acid], for which, in assay [1] (setting [2]), the IC50 was 154 ± 33.8 µM. Further, in the assay on SIM-A9 cells, the inhibition at 2.7 µM amounted to 27%.

`COc1c(C)ccc(CNc2cc(F)ccc2C(O)C(F)(F)F)c1OC` (centres unmarked) [WW-028]: the inhibition at 2.7 µM in the assay on SIM-A9 cells stood at 19.9%.

For the molecule `O=C(O)c1cc(S(=O)(=O)Nc2ccccc2)c(Cl)cc1NCc1ccco1` [SI-W080, 4-Chloro-2-((furan-2-ylmethyl)amino)-5-(N-phenylsulfamoyl) benzoic acid], in assay [1] (setting [2]), the concentration for half-maximal inhibition (IC50) turned out to be 168 ± 29 µM. For the same molecule, the inhibition at 100 µM at Aβ 1-40 (setting [3]) is 17.4%. As for `COC(=O)c1cc(S(N)(=O)=O)c(Cl)cc1NCc1ccco1` [WW-161], in the assay with SIM-A9 cells, the inhibition at 2.7 µM is 24%. `O=C(O)c1cc(S(=O)(=O)NCc2ccc(C(O)C(F)(F)F)cc2)c(Cl)cc1NCc1ccco1` (centres unmarked) [WW036, 4-Chloro-2-((furan-2-ylmethyl)amino)-5-(N-(4-(2,2,2-trifluoro-1-hydroxyethyl)benzyl)sulfamoyl)benzoic Acid]: the IC50 in assay [1] (setting [2]) was determined as 68.5 ± 18.7 µM. Also, the “Inhibition of Aβ fibrillization … Inhibition %” value on Aβ 1-40 (Example 5, versus DMSO control) is reported as “Pro- fibrilliza- tion”. With `O=C(O)c1cc(S(=O)(=O)N2CCOCC2)c(Cl)cc1NCc1ccco1` [WW049, 4-Chloro-2((furan-2-ylmethyl)amino)-5-(morpholinosulfony)benzoic Acid], the IC50 in assay [1] (setting [4]) is 38.5 µM; in assay [1] (setting [2]), 41.2 ± 12.8 µM. In addition, the “Inhibition of Aβ fibrillization … Inhibition %” value on Aβ 1-40 (Example 5, versus DMSO control) is “Pro- fibrilliza- tion”. Consider `CCNC(=O)c1cc(C(=O)O)c(NCc2ccco2)cc1Cl` [SIV-W174, 4-Chloro-5-(ethylcarbamoyl)-2((furan-2-ylmethyl)amino)benzoic Acid], for which the IC50 in assay [1] (setting [2]) was above 200 µM. In the assay on SIM-A9 cells, the inhibition at 2.7 µM is 21%.

Regarding `CNS(=O)(=O)c1cc(-c2noc(=O)[nH]2)c(NCc2ccco2)cc1Cl` [WW187, 2-Chloro-4-((furan-2-ylmethyl)amino)-N-methyl-5-(5-oxo-2,5-dihydro-1,2,4-oxadiazol-3-yl)benzenesulfonamide], the concentration for half-maximal inhibition (IC50) in assay [1] (setting [2]) is above 200 µM. In the assay on SIM-A9 cells, the inhibition at 2.7 µM is 20%.

For `CN(Cc1ccccc1)S(=O)(=O)c1cc(C(=O)O)c(NCc2ccco2)cc1Cl` [WW052, 5-(N-Benzyl-N-methylsulfamoyl)-4-chloro-2-((furan-2-ylmethyl)amino) benzoic Acid], the IC50 in assay [1] (setting [4]) worked out at 21.7 µM; in assay [1] (setting [2]), 21.9 ± 7.36 µM. Further, the inhibition at 2.7 µM in the assay with SIM-A9 cells was 24.1%. On to `COc1ccc(C(=O)O)c(NCc2ccccc2)c1` [Compound 5-LV-54B, 2-(Benzylamino)-4-methoxybenzoic Acid], for which, in the assay on SIM-A9 cells, the inhibition at 2.7 µM was found to be 30%. Still for that read-out and setting: in the case of `O=C(O)c1ccc(Cl)cc1NCCc1ccccc1` [LD3-306, 4-Chloro-2-(phenethylamino)benzoic Acid] it was 21%; in that of `O=C(O)c1ccc(Cl)cc1NCc1ccoc1` [LD3-310, 4-Chloro-2-((furan-3-ylmethyl)amino)benzoic Acid], 24%. As to `O=C(O)c1cc(C(=O)N2CCCCC2)c(Cl)cc1NCc1ccco1` [SIV-W167, 4-Chloro-2-((furan-2-ylmethyl)amino)-5-(piperidine-1-carbonyl)benzoic Acid], the IC50 in assay [1] (setting [2]) is above 200 µM. On the same count and under the same terms, in the case of `O=C(O)c1ccc(F)cc1NCc1ccco1` [WW071, 4-Fluoro-2-((furan-2-ylmethyl)amino)benzoic Acid] it was 130 ± 25.8 µM.

For `O=C(O)c1cc(S(=O)(=O)NCCc2ccccc2)c(Cl)cc1NCc1ccco1` [WW056, 4-Chloro-2-((furan-2-ylmethyl)amino)-5-(N-phenethylsulfamoyl) Benzoic Acid], the IC50 in assay [1] (setting [2]) is above 200 µM. The inhibition at 2.7 µM in the assay with SIM-A9 cells is 13%.

As for `CNC(=O)c1cc(C(=O)OC)c(NCc2ccco2)cc1Cl` [SIV-W155, Methyl 4-chloro-2-((furan-2-ylmethyl)amino)-5-(methylcarbamoyl)benzoate], in the assay with SIM-A9 cells, the inhibition at 2.7 µM is 20%. Consider `CNS(=O)(=O)c1cc(-c2nnn[nH]2)c(NCc2ccco2)cc1Cl` [WW121], for which the IC50 in assay [1] (setting [2]) worked out at 70.5 ± 15.7 µM. Moreover, the inhibition at 2.7 µM in the assay with SIM-A9 cells came to 2%. Consider `CNS(=O)(=O)c1cc(CO)c(NCc2ccco2)cc1Cl` [WW109, 2-Chloro-4-((furan-2-ylmethyl)amino)-5-(hydroxymethyl)-N-methylbenzenesulfonamide], for which the IC50 in assay [1] (setting [2]) was 117 ± 3.95 µM. Moreover, the inhibition at 2.7 µM in the assay with SIM-A9 cells turned out to be 21%.

Take `COC(=O)c1cc(C(=O)N2CCCCC2)c(Cl)cc1NCc1ccco1` [SIV-W160, Methyl 4-chloro-2-((furan-2-ylmethyl)amino)-5-(piperidine-1-carbonyl)benzoate]: the inhibition at 2.7 µM in the assay on SIM-A9 cells was determined as 25%. The same measure, in the same setting: under `COC(=O)c1cc(C(=O)Nc2ccccc2)c(Cl)cc1NCc1ccco1` [SIV-W178, Methyl 4-chloro-2-((furan-2-ylmethyl)amino)-5-(phenylcarbamoyl)benzoate] stands 12%. With `CCNS(=O)(=O)c1cc(C(=O)O)c(NCc2ccco2)cc1Cl` [WW057, 4-Chloro-5-(N-ethylsulfamoyl)-2-((furan-2-ylmethyl)amino) Benzoic Acid], the IC50 in assay [1] (setting [2]) stood at 137 ± 11.9 µM.

On to `O=C(O)c1cc(C(=O)N2CCOCC2)c(Cl)cc1NCc1ccco1` [SIV-W166, 4-Chloro-2-((furan-2-ylmethyl)amino)-5-(morpholine-4-carbonyl)benzoic acid], for which the half-maximal inhibitory concentration (IC50) in assay [1] (setting [2]) was above 200 µM. In the assay on SIM-A9 cells, the inhibition at 2.7 µM stood at 25%. As for `Cc1ccc(CNc2cc(F)ccc2C(O)C(F)(F)F)c(C)c1` (centres unmarked) [WW-024], the inhibition at 2.7 µM in the assay with SIM-A9 cells was found to be 11.2%. With `NC(=O)c1cc(C(=O)O)c(NCc2ccco2)cc1Cl` [SIV-W164, 5-Carbamoyl-4-chloro-2((furan-2-ylmethyl)amino) Benzoic Acid], the half-inhibitory concentration (IC50) in assay [1] (setting [2]) was above 200 µM. On to `CC(NS(=O)(=O)c1cc(C(=O)O)c(NCc2ccco2)cc1Cl)c1ccccc1` (centres unmarked) [WW053, 4-Chloro-2-((furan-2-ylmethyl)amino)-5-(N-(1-phenylethyl)sulfamoyl) benzoic Acid], for which the IC50 in assay [1] (setting [4]) was 38.5 µM; in assay [1] (setting [2]), 41.1 ± 20.4 µM.

As for `O=C(Nc1ccccc1)c1cc(C(=O)O)c(NCc2ccco2)cc1Cl` [SIV-W179, 4-Chloro-2((furan-2-ylmethyl)amino)-5-(phenylcarbamoyl)benzoic Acid], in assay [1] (setting [2]), the IC50 was above 200 µM. The inhibition at 2.7 µM in the assay with SIM-A9 cells turned out to be 22%. For the molecule `O=C(O)c1cc(S(=O)(=O)NC2CC2)c(Cl)cc1NCc1ccco1` [WW030, 4-Chloro-5-(N-cyclopropylsulfamoyl)-2-((furan-2-ylmethyl)amino)benzoic Acid], the half-inhibitory concentration (IC50) in assay [1] (setting [2]) is above 200 µM. In the case of `COc1ccc(C(=O)O)c(NCc2ccoc2)c1` [Compound 5-LV-56A], in the assay with SIM-A9 cells, the inhibition at 2.7 µM is 32%.

Source of the values: patent US20220259167A1 (UNIVERSITY HEALTH NETWORK, priority 2019, published 2022).
